≈ marks a conversion by molar mass, not a printed value. Calls of active or inactive are those of the source. No cut-off for these calls is given here.
What was measured:
[1] = Antitumor activity against mouse ependymoblastoma cells allografted in mouse assessed as change in body weight at 0.25 mg/kg, ip qd administered from day 1 to 5 post intracerebral tumor-implantation measured on day 5 relative to control; type: functional; settings: route intraperitoneal
[2] = tested on: P388; test: Antitumor activity against mouse P388 cells allografted in mouse assessed as change in body weight at 0.78 mg/kg, ip qd administered from day 1 to 9 post ip tumor-implantation measured on day 5 relative to control; type: functional; settings: route intraperitoneal
[3] = tested on: L1210; test: Antitumor activity against mouse L1210 cells allografted in mouse assessed as mouse survival at 2 mg/kg, ip qd administered from day 1 to 9 post ip tumor-implantation relative to control; type: functional; settings: route intraperitoneal
[4] = tested on: L1210; test: Antitumor activity against mouse L1210 cells allografted in mouse assessed as mouse survival at 1.3 mg/kg, ip qd administered from day 1 to 9 post ip tumor-implantation relative to control; type: functional; settings: route intraperitoneal
[5] = tested on: P388; test: Antitumor activity against mouse P388 cells allografted in mouse assessed as change in body weight at 3.12 mg/kg, ip qd administered from day 1 to 9 post ip tumor-implantation measured on day 5 relative to control; type: functional; settings: route intraperitoneal
[6] = tested on: L1210; test: Antitumor activity against mouse L1210 cells allografted in mouse assessed as change in body weight at 2 mg/kg, ip qd administered from day 1 to 9 post ip tumor-implantation measured on day 5 relative to control; type: functional; settings: route intraperitoneal
[7] = tested on: Mus musculus; test: Antitumor activity against mouse ependymoblastoma cells allografted in mouse assessed as cure rate at 2 mg/kg, ip qd administered from day 1 to 5 post intracerebral tumor-implantation measured on day 99; type: functional, organism-based; set-up: dose 2 mg/kg
[8] = Antitumor activity against mouse ependymoblastoma cells allografted in mouse assessed as change in body weight at 2 mg/kg, ip qd administered from day 1 to 5 post intracerebral tumor-implantation measured on day 5 relative to control; type: functional; settings: route intraperitoneal
[9] = tested on: L1210; test: Antitumor activity against mouse L1210 cells allografted in mouse assessed as change in body weight at 6.25 mg/kg, ip qd administered from day 1 to 9 post ip tumor-implantation measured on day 5 relative to control; type: functional; settings: route intraperitoneal
[10] = tested on: P388; test: Antitumor activity against mouse P388 cells allografted in mouse assessed as mouse survival at 0.78 mg/kg, ip qd administered from day 1 to 9 post intracerebral tumor-implantation relative to control; type: functional; settings: route intraperitoneal
[11] = tested on: Mus musculus; test: Toxicity in mouse allografted with mouse ependymoblastoma cells at 4 mg/kg, ip qd administered from day 1 to 5 post intracerebral tumor-implantation; type: organism-based; set-up: dose 4 mg/kg, route intraperitoneal; settings: in vivo
[12] = tested on: L1210; test: Antitumor activity against mouse L1210 cells allografted in mouse assessed as mouse survival at 4.6 mg/kg, ip qd administered from day 1 to 9 post ip tumor-implantation relative to control; type: functional; settings: route intraperitoneal
[13] = Antitumor activity against mouse ependymoblastoma cells allografted in mouse assessed as mouse survival at 4 mg/kg, ip qd administered from day 1 to 5 post intracerebral tumor-implantation relative to control; type: functional; settings: route intraperitoneal
[14] = tested on: L1210; test: Antitumor activity against mouse L1210 cells allografted in mouse assessed as change in body weight at 0.88 mg/kg, ip qd administered from day 1 to 9 post ip tumor-implantation measured on day 5 relative to control; type: functional; settings: route intraperitoneal
[15] = tested on: Mus musculus; test: Toxicity in mouse allografted with mouse LLC cells at 4 mg/kg, ip qd administered from day 5 to 15 post sc tumor-implantation; type: organism-based; set-up: dose 4 mg/kg; settings: in vivo
[16] = tested on: Mus musculus; test: Toxicity in mouse allografted with mouse P388 cells at 6.25 mg/kg, ip qd administered from day 1 to 9 post intracerebral tumor-implantation; type: organism-based; set-up: dose 6.25 mg/kg, route intraperitoneal; settings: in vivo
[17] = tested on: L1210; test: Antitumor activity against mouse L1210 cells allografted in mouse assessed as change in body weight at 3.12 mg/kg, ip qd administered from day 1 to 9 post intracerebral tumor-implantation measured on day 5 relative to control; type: functional; settings: route intraperitoneal
[18] = Antitumor activity against mouse ependymoblastoma cells allografted in mouse assessed as mouse survival at 1 mg/kg, ip qd administered from day 1 to 5 post intracerebral tumor-implantation relative to control; type: functional; settings: route intraperitoneal
[19] = tested on: P388; test: Antitumor activity against mouse P388 cells allografted in mouse assessed as mouse survival at 1.56 mg/kg, ip qd administered from day 1 to 9 post intracerebral tumor-implantation relative to control; type: functional; settings: route intraperitoneal
[20] = Therapeutic ratio, ratio of highest active dose to lowest active for antitumor activity against in ip dosed mouse allografted with mouse B16 cells; type: ADME, organism-based; settings: in vivo, read-out: TI
[21] = Aqueous solubility of the compound; type: physicochemical
[22] = tested on: Lewis lung carcinoma cell line; test: Antitumor activity against mouse LLC cells allografted in mouse assessed as change in body weight at 2 mg/kg, ip qd administered from day 5 to 15 post sc tumor-implantation measured on day 5 relative to control; type: functional; settings: route subcutaneous
[23] = Antitumor activity against mouse ependymoblastoma cells allografted in mouse assessed as mouse survival at 2 mg/kg, ip qd administered from day 1 to 5 post intracerebral tumor-implantation relative to control; type: functional; settings: route intraperitoneal
[24] = Therapeutic ratio, ratio of highest active dose to lowest active for antitumor activity against in ip dosed mouse allografted with mouse P388 cells; type: ADME, organism-based; settings: in vivo, read-out: TI
[25] = Therapeutic ratio, ratio of highest active dose to lowest active for antitumor activity against in ip dosed mouse allografted with mouse L1210 cells; type: ADME, organism-based; settings: in vivo, read-out: TI
[26] = tested on: Mus musculus; test: Toxicity in mouse allografted with mouse B16 cells at 6.25 mg/kg, ip qd administered from day 1 to 9 post ip tumor-implantation; type: organism-based; set-up: dose 6.25 mg/kg, route intraperitoneal; settings: in vivo
[27] = tested on: P388; test: Antitumor activity against mouse P388 cells allografted in mouse assessed as mouse survival at 1.56 mg/kg, ip qd administered from day 1 to 9 post ip tumor-implantation relative to control; type: functional; settings: route intraperitoneal
[28] = Therapeutic ratio, ratio of highest active dose to lowest active for antitumor activity against in ip dosed mouse allografted with mouse LLC cells; type: organism-based, Lewis lung carcinoma; settings: in vivo, read-out: TI
[29] = tested on: L1210; test: Antitumor activity against mouse L1210 cells allografted in ip dosed mouse at optimum dose administered qd on day 1, 5 and 9 relative to control; type: functional
[30] = tested on: L1210; test: Antitumor activity against mouse L1210 cells allografted in mouse assessed as change in body weight at 3.12 mg/kg, ip qd administered from day 1 to 9 post ip tumor-implantation measured on day 5 relative to control; type: functional; settings: route intraperitoneal
[31] = tested on: Mus musculus; test: Toxicity in mouse allografted with mouse L1210 cells at 12.5 mg/kg, ip qd administered from day 1 to 9 post ip tumor-implantation; type: organism-based; set-up: dose 12.5 mg/kg, route intraperitoneal; settings: in vivo
[32] = tested on: B16; test: Antitumor activity against mouse B16 cells allografted in mouse assessed as mouse survival at 0.78 mg/kg, ip qd administered from day 1 to 9 post ip tumor-implantation relative to control; type: functional; settings: route intraperitoneal
[33] = tested on: L1210; test: Antitumor activity against mouse L1210 cells allografted in mouse assessed as mouse survival at 6.25 mg/kg, ip qd administered from day 1 to 9 post intracerebral tumor-implantation relative to control; type: functional; settings: route intraperitoneal
[34] = Antitumor activity against mouse ependymoblastoma cells allografted in mouse assessed as change in body weight at 4 mg/kg, ip qd administered from day 1 to 5 post intracerebral tumor-implantation measured on day 5 relative to control; type: functional; settings: route intraperitoneal
[35] = Antitumor activity against mouse ependymoblastoma cells allografted in mouse assessed as change in body weight at 1 mg/kg, ip qd administered from day 1 to 5 post intracerebral tumor-implantation measured on day 5 relative to control; type: functional; settings: route intraperitoneal

CCOC(=O)NC1=C(N2CC2)C(=O)C(NC(=O)OCC)=C(N2CC2)C1=O [DIAZIQUONE]
Activity [1]: -1.5 g
Activity [2]: -2.4 g
T/C [3]: 201%
T/C [4]: 160%
Activity [5]: -4.1 g
Activity [6]: -3.8 g
Activity [7]: Active
Activity [8]: -2.7 g
Activity [9]: -4.1 g
T/C [10]: 125%
Activity [11]: Toxic
T/C [12]: 98%
T/C [13]: 376%
Activity [14]: -1.4 g
Activity [15]: Toxic
Activity [16]: Toxic
Activity [17]: -2.1 g
T/C [18]: 226%
T/C [19]: 137%
selectivity ratio [20]: 3
solubility [21]: 500 µg/mL (≈ 1370 µM)
Activity [22]: 0.3 g
T/C [23]: 271%
selectivity ratio [24]: 3
selectivity ratio [25]: 4
Activity [26]: Toxic
T/C [27]: 212%
selectivity ratio [28]: 3
T/C [29]: 154%
Activity [30]: -4.1 g
Activity [31]: Toxic
T/C [32]: 113%
T/C [33]: 103%
Activity [34]: -3.9 g
Activity [35]: -2.1 g
